# Assay results: ChEMBL document CHEMBL3045835, “Comparative study of conventional and microwave-assisted synthesis of some Schiff bases and their potential as antimicrobial agents” (2012)
# Assays:
# Format in all cases: functional
# Micrococcus luteus [1] = test: Antibacterial activity against Micrococcus luteus MTCC 1538 at 1500 ug/ml after 18 hr by cup-plate method; settings: MTCC 1538, 18 h, read-out: DIZ
# Micrococcus luteus [2] = test: Antibacterial activity against Micrococcus luteus MTCC 1538 after 24 hr by broth dilution method; settings: MTCC 1538, 24 h
# Aspergillus niger [3] = test: Antifungal activity against Aspergillus niger MTCC 2546 at 100 ug/ml after 18 hr by cup-plate method; settings: MTCC 2546, 18 h, read-out: DIZ
# Pseudomonas aeruginosa [4] = test: Antibacterial activity against Pseudomonas aeruginosa MTCC 424 at 1000 ug/ml after 18 hr by cup-plate method; settings: MTCC 424, 18 h, read-out: DIZ
# Micrococcus luteus [5] = test: Antibacterial activity against Micrococcus luteus MTCC 1538 at 200 ug/ml after 18 hr by cup-plate method; settings: MTCC 1538, 18 h, read-out: DIZ
# Pseudomonas fluorescens [6] = test: Antibacterial activity against Pseudomonas fluorescens MTCC 2421 at 100 ug/ml after 18 hr by cup-plate method; settings: MTCC 2421, 18 h, read-out: DIZ
# Pseudomonas fluorescens [7] = test: Antibacterial activity against Pseudomonas fluorescens MTCC 2421 at 1000 ug/ml after 18 hr by cup-plate method; settings: MTCC 2421, 18 h, read-out: DIZ
# Penicillium chrysogenum [8] = test: Antifungal activity against Penicillium chrysogenum MTCC 161 at 1000 ug/ml after 18 hr by cup-plate method; settings: MTCC 161, 18 h, read-out: DIZ
# Bacillus subtilis [9] = test: Antibacterial activity against Bacillus subtilis MTCC 441 at 500 ug/ml after 18 hr by cup plate method; settings: MTCC 441, 18 h, read-out: DIZ
# Staphylococcus aureus [10] = test: Antibacterial activity against Staphylococcus aureus MTCC 1430 at 1500 ug/ml after 18 hr by cup-plate method; settings: MTCC 1430, 18 h, read-out: DIZ
# Aspergillus niger [11] = test: Antifungal activity against Aspergillus niger MTCC 2546 at 1000 ug/ml after 18 hr by cup-plate method; settings: MTCC 2546, 18 h, read-out: DIZ
# Bacillus pumilus [12] = test: Antibacterial activity against Bacillus pumilus MTCC 1456 at 100 ug/ml after 18 hr by cup-plate method; settings: MTCC 1456, 18 h, read-out: DIZ
# Pseudomonas aeruginosa [13] = test: Antibacterial activity against Pseudomonas aeruginosa MTCC 424 at 200 ug/ml after 18 hr by cup-plate method; settings: MTCC 424, 18 h, read-out: DIZ
# Bacillus pumilus [14] = test: Antibacterial activity against Bacillus pumilus MTCC 1456 at 1500 ug/ml after 18 hr by cup-plate method; settings: MTCC 1456, 18 h, read-out: DIZ
# Aspergillus niger [15] = test: Antifungal activity against Aspergillus niger MTCC 2546 at 500 ug/ml after 18 hr by cup-plate method; settings: MTCC 2546, 18 h, read-out: DIZ
# Bacillus subtilis [16] = test: Antibacterial activity against Bacillus subtilis MTCC 441 after 24 hr by broth dilution method; settings: MTCC 441, 24 h
# Staphylococcus aureus [17] = test: Antibacterial activity against Staphylococcus aureus MTCC 1430 after 24 hr by broth dilution method; settings: MTCC 1430, 24 h
# Pseudomonas fluorescens [18] = test: Antibacterial activity against Pseudomonas fluorescens MTCC 2421 at 1500 ug/ml after 18 hr by cup-plate method; settings: MTCC 2421, 18 h, read-out: DIZ
# Penicillium chrysogenum [19] = test: Antifungal activity against Penicillium chrysogenum MTCC 161 at 100 ug/ml after 18 hr by cup-plate method; settings: MTCC 161, 18 h, read-out: DIZ
# Bacillus pumilus [20] = test: Antibacterial activity against Bacillus pumilus MTCC 1456 at 200 ug/ml after 18 hr by cup-plate method; settings: MTCC 1456, 18 h, read-out: DIZ
# Escherichia coli [21] = test: Antibacterial activity against Escherichia coli MTCC 1573 at 100 ug/ml after 18 hr by cup-plate method; settings: MTCC 1573, 18 h, read-out: DIZ
# Pseudomonas aeruginosa [22] = test: Antibacterial activity against Pseudomonas aeruginosa MTCC 424 at 500 ug/ml after 18 hr by cup-plate method; settings: MTCC 424, 18 h, read-out: DIZ
# Pseudomonas aeruginosa [23] = test: Antibacterial activity against Pseudomonas aeruginosa MTCC 424 after 24 hr by broth dilution method; settings: MTCC 424, 24 h
# Escherichia coli [24] = test: Antibacterial activity against Escherichia coli MTCC 1573 after 24 hr by broth dilution method; settings: MTCC 1573, 24 h
# Pseudomonas aeruginosa [25] = test: Antibacterial activity against Pseudomonas aeruginosa MTCC 424 at 100 ug/ml after 18 hr by cup-plate method; settings: MTCC 424, 18 h, read-out: DIZ
# Pseudomonas fluorescens [26] = test: Antibacterial activity against Pseudomonas fluorescens MTCC 2421 at 500 ug/ml after 18 hr by cup-plate method; settings: MTCC 2421, 18 h, read-out: DIZ
# Escherichia coli [27] = test: Antibacterial activity against Escherichia coli MTCC 1573 at 500 ug/ml after 18 hr by cup-plate method; settings: MTCC 1573, 18 h, read-out: DIZ
compound,measurement,setting,value
Cc1cc(/N=C/c2cccc3ccccc23)no1,zone of inhibition at 1500 µg/mL,Micrococcus luteus [1],24 mm
same,MIC,Micrococcus luteus [2],200 µg/mL
same,zone of inhibition at 100 µg/mL,Aspergillus niger [3],13 mm
same,zone of inhibition at 1000 µg/mL,Pseudomonas aeruginosa [4],18 mm
same,zone of inhibition at 200 µg/mL,Micrococcus luteus [5],18 mm
same,zone of inhibition at 100 µg/mL,Pseudomonas fluorescens [6],11 mm
same,zone of inhibition at 1000 µg/mL,Pseudomonas fluorescens [7],18 mm
same,zone of inhibition at 1000 µg/mL,Penicillium chrysogenum [8],19 mm
same,zone of inhibition at 500 µg/mL,Bacillus subtilis [9],17 mm
same,zone of inhibition at 1500 µg/mL,Staphylococcus aureus [10],20 mm
same,zone of inhibition at 1000 µg/mL,Aspergillus niger [11],20 mm
same,zone of inhibition at 100 µg/mL,Bacillus pumilus [12],13 mm
same,zone of inhibition at 200 µg/mL,Pseudomonas aeruginosa [13],16 mm
same,zone of inhibition at 1500 µg/mL,Bacillus pumilus [14],18 mm
same,zone of inhibition at 500 µg/mL,Aspergillus niger [15],19 mm
same,MIC,Bacillus subtilis [16],300 µg/mL
same,MIC,Staphylococcus aureus [17],400 µg/mL
same,zone of inhibition at 1500 µg/mL,Pseudomonas fluorescens [18],19 mm
same,zone of inhibition at 100 µg/mL,Penicillium chrysogenum [19],15 mm
same,zone of inhibition at 200 µg/mL,Bacillus pumilus [20],15 mm
same,zone of inhibition at 100 µg/mL,Escherichia coli [21],12 mm
same,zone of inhibition at 500 µg/mL,Pseudomonas aeruginosa [22],17 mm
same,MIC,Pseudomonas aeruginosa [23],300 µg/mL
same,MIC,Escherichia coli [24],300 µg/mL
same,zone of inhibition at 100 µg/mL,Pseudomonas aeruginosa [25],14 mm
same,zone of inhibition at 500 µg/mL,Pseudomonas fluorescens [26],15 mm
same,zone of inhibition at 500 µg/mL,Escherichia coli [27],14 mm
